Source: paper PMC12394552, “Multi-biological activity evaluation of Sn(П), Zn(П) and Fe(П) complexes based on thiocarbohydrazide schiff bases: synthesis, spectroscopic investigations and fluorescence studies” (Scientific Reports, 2025)
In brackets after ≈: the same amount, converted by molar mass. Read-outs that look alike come from different tables or passages of the source.

How the values were obtained:
[1] = system: Periodontal ligament fibroblasts (PDL); assay: SRB selective cytotoxicity in normal fibroblasts; format: cell-based
Experimental: (§1) All malignancy cell lines were cultured in high glucose DMEM (Bio Whittaker, Verviers, Belgium) containing 10% FBS, 4-(2-hydroxyethyl)-1-piperazineethanesulfonic acid (HEPES) Buffer (10 mM), L-glutamine (2 mM), gentamicin (50 µg/mL), penicillin (100 U/mL), and streptomycin sulfate ([…]) from Sigma (St. Luis, MO, USA) whereas Sulforhodamine B was from Santa Cruz Biotechnology (Inc. Texas, USA). Surviving cancer cell lines provide numerous advantages; they provide a pure and continuous supply of cells, thus overcoming any ethical barriers concerning human tissue usage, and are cost-effective. For cytotoxicity screening, adherent monolayers of all procured malignancies’ cell lines were examined. Periodontal ligament fibroblasts (PDL) were used to determine selective cytotoxicity.

[2] = system: MDA-MB-231 invasive mammary malignancy; assay: SRB antiproliferative assay; format: cell-based, human; details: read-out: Cytotoxicity (as of %control) IC50 value, MDA-MB-231 invasive mammary malignancy
Experimental: as §1

MCF7 mammary malignancy = assay: SRB antiproliferative assay; format: cell-based, human; details: read-out: Cytotoxicity (as of %control) IC50 value, MCF7 mammary malignancy
Experimental: as §1

A549 lung malignancy = assay: SRB antiproliferative assay; format: cell-based, human; details: read-out: Cytotoxicity (as of %Control) IC50 value, A549 lung malignancy
Experimental: as §1

[3] = system: PANC1 pancreatic cell line; assay: SRB antiproliferative assay; format: cell-based, human; details: read-out: Cytotoxicity (as of %control) IC50 value, PANC1
Experimental: as §1

[4] = system: BT-549 invasive mammary malignancy; assay: SRB antiproliferative assay; format: cell-based, human; details: read-out: Cytotoxicity (as of %control) IC50 value, BT-549 invasive mammary malignancy
Experimental: as §1

T47D mammary malignancy = assay: SRB antiproliferative assay; format: cell-based, human; details: read-out: Cytotoxicity (as of %control) IC50 value, T47D mammary malignancy
Experimental: as §1

[5] = system: MDA-MB-453 invasive mammary malignancy; assay: SRB antiproliferative assay; format: cell-based, human; details: read-out: Cytotoxicity (as of %control) IC50 value, MDA-MB-453 invasive mammary malignancy
Experimental: as §1

[6] = system: SW480 colorectal cancer cell line; assay: SRB antiproliferative assay; format: cell-based, human; details: read-out: Cytotoxicity (as of %control) IC50 value, SW480
Experimental: as §1

Hela cervix malignancy = assay: SRB antiproliferative assay; format: cell-based, human; details: read-out: Cytotoxicity (as of %Control) IC50 value, Hela cervix malignancy
Experimental: as §1

PC3 prostate malignancy = assay: SRB antiproliferative assay; format: cell-based, human; details: read-out: Cytotoxicity (as of %Control) IC50 value, PC3 prostate malignancy
Experimental: as §1

[7] = DPPH free radical scavenger assay; details: values given in µM; 1 h incubation, 517 nm; test range 6.25–200 µM; mean ± SD n = 4
Excerpt: This method depends on the reduction of the radicals, resulting in a color change from oxidized purple to reduced yellow. Principally, Diphenyl-2-picryl-hydrazyl (DPPH) undergoes reduction in methanol (MeOH) solution, in the presence of a hydrogen-donating compound, due to the formation of the non-radical form DPPH-H. This color change can be quantitatively measured using a 515–520 nm spectrophotometer. In contrast to other radical scavenging assays, a DPPH radical is stable and can provide reproducible spectroscopic values[41],[42]. A DPPH solution (0.2 mM) was diluted with MeOH and then mixed with treatment compounds as well as ascorbic acid in a concentration ratio of 1:1 using a 96-well plate (so that a final concentration range 6.25–200 µM was obtained for test agents); the treated solution was incubated one hour isolated from light. Finally, a change in absorbance at 517 nm wavelength was measured using a microplate reader (Bio-Tek Instrument, USA). Ascorbic acid was the robust and classical standard radical scavenging reference agent for comparison purposes[43],[44]. The calculation of the DPPH radical scavenging activity inhibition was determined by the following equation, where A represents photometric absorbance: in % = (A control – A sample) / A control x 100%)[45].

U87 glioblastoma = assay: SRB antiproliferative assay; format: cell-based; details: Homo sapiens, 72 h, read-out: Cytotoxicity (as of %Control) IC50 value, U87 Gliobalstoma
Experimental: as §1

[8] = system: HCT116 colorectal cancer cell line; assay: SRB antiproliferative assay; format: cell-based; details: Homo sapiens, HCT-116, 72 h, read-out: Cytotoxicity (as of %control) IC50 value, HCT116
Experimental: as §1

A375 skin melanoma = assay: SRB antiproliferative assay; format: cell-based; details: Homo sapiens, A-375, 72 h; read-out: Cytotoxicity (as of %Control) IC50 value, A375 skin melanoma
Experimental: as §1

[9] = system: HT29 colorectal cancer cell line; assay: SRB antiproliferative assay; format: cell-based; details: Homo sapiens, HT-29, 72 h, read-out: Cytotoxicity (as of %control) IC50 value, HT29
Experimental: as §1

[10] = system: CACO2 colorectal cancer cell line; assay: SRB antiproliferative assay; format: cell-based; details: Homo sapiens, Caco-2, 72 h, read-out: Cytotoxicity (as of %control) IC50 value, CACO2
Experimental: as §1

[11] = system: SW620 colorectal cancer cell line; assay: SRB antiproliferative assay; format: cell-based; details: Homo sapiens, SW-620, 72 h; read-out: Cytotoxicity (as of %control) IC50 value, SW620
Experimental: as §1

RAW 264.7 macrophages = assay: SRB cytotoxicity on RAW 264.7 viability; format: cell-based; details: Mus musculus, RAW264.7, read-out: RAW 264.7 viability IC50 value
Experimental: as §1
RAW 264.7 mouse macrophage cell line (ATCC® TIB-71) were cultured in high glucose DMEM supplemented with 10% (FBS), penicillin (100 U/mL), streptomycin (100 µg/mL), and L-glutamate (100 µg/mL) in a 37 °C humidified atmosphere with 95% air and 5% CO2. Confluent macrophages (2 × 10^5/well) were incubated with inflammation-priming lipopolysaccharide (LPS; Sigma, St. Luis, MO, USA) with either indomethacin as the reference agent[39] or treatment compounds at different concentrations (1.563-200 µM). Griess reagent was mixed with aliquots of cell culture media and incubated at R.T. for 10 min. Absorbance at 550 nm was determined using a microplate reader (Spectro Scan 80D UV-VIS spectrophotometer (Sedico Ltd., Nicosia, Cyprus). The nitrite concentration was determined by comparison with a sodium nitrite standard curve. SRB cytotoxicity protocol was performed for evaluation of the effect of the studied test compounds on RAW 264.7 viability.

[12] = system: Candida albicans ATCC10231; assay: MIC determination, broth microdilution, absorbance 530 nm; format: cell-based; details: ATCC10231, 24 h, read-out: C. albicans MIC value at 50% inhibition
Experimental: (§2) The compounds were tested against Gram-positive bacteria (Staphylococcus aureus ATCC 6538), Gram-negative bacteria (Escherichia coli ATCC 8739) and yeast (Candida albicansATCC10231). […] For bacterial strains, the EUCAST (2025) method was adapted. A few colonies of each bacterial culture previously grown on Mueller-Hinton agar for 24–48 h were suspended in normal saline and adjusted to 0.5 McFarland (1.5 × 10^8 CFU/mL). A 1/10 dilution was prepared in Mueller-Hinton broth (MHB) for the inoculation. In the wells of a 96-well flat-bottom microtiter plate, double serial dilutions of each compound were prepared in MHB. Each well was inoculated with the bacteria to achieve ca. 5 × 10^5 CFU/mL, and the plates were incubated at 37 °C overnight. Positive control (bacteria in culture medium only) and negative control (culture medium) were prepared. Each compound was tested in duplicate. After incubation, the plates were inspected visually for growth inhibition. To test the antimicrobial activity of DMSO, double serial dilutions of DMSO in broth medium were prepared and processed as the samples, but without the addition of the compounds. The antibacterial drug ciprofloxacin was used as a reference for comparison.
(§3) For Candida albicans, the same procedure applied to bacteria was used, except after inoculation, the plates were incubated at 35 °C for 24 h, and after incubation, the absorbance was measured at 530 nm using a plate reader. […] The absorbance of the wells was corrected by subtracting the absorbance of the blank. […] The antifungal drug fluconazole was used as a reference for comparison.

[13] = system: Staphylococcus aureus ATCC 6538; assay: MIC determination, broth microdilution (EUCAST adapted); format: cell-based; details: ATCC6538, read-out: S. aureus MIC value
Experimental: as §2, §3

[14] = system: Escherichia coli ATCC 8739; assay: as above; format: cell-based; details: ATCC8739, read-out: E. coli MIC value
Experimental: as §2, §3

[15] = 72 h incubations, 3.125-200µM range, mean ± SD n = 4

SMILES: N.N.[Cl][Pt][Cl] [Cisplatin, reference compound]
- IC50 ([1]; SRB, normal PDL fibroblasts, unit printed for cisplatin cell and footnote): 5.6 µM
- IC50 ([2]; 72 h incubations, 3.125-200 µM range, mean ± SD n = 4): 11.8 ± 1.4 µM
- IC50 (MCF7 mammary malignancy; [15]): 31.6 ± 0.44 µM
- IC50 (A549 lung malignancy; [15]): 71.9 ± 2.9 µM
- IC50 [3, 15]: 41.5 ± 0.4 µM
- IC50 [4, 15]: 3.77 ± 0.25 µM
- IC50 (T47D mammary malignancy; [15]): 34.2 ± 0.5 µM
- IC50 [5, 15]: 9.8 ± 0.1 µM
- IC50 [6, 15]: 8.92 ± 0.24 µM
- IC50 (Hela cervix malignancy; [15]): 27.3 ± 0.9 µM
- IC50 (PC3 prostate malignancy; [15]): 12.5 ± 0.2 µM

SMILES: COc1ccc(/C=N/NC(=S)N/N=C/c2ccc(OC)cc2)cc1 [L2, 1,5-bis (4-methoxyanisaldehyde) thiocarbohydrazine]
- IC50 [7]: 18.1 ± 2.04 µM
- IC50 ([1]; Fibroblast): > 200 µM
- IC50 (U87 glioblastoma): > 200 µM
- IC50 [8]: > 200 µM
- IC50 (A375 skin melanoma): > 200 µM
- IC50 [9]: > 200 µM
- IC50 [10]: > 200 µM
- IC50 [11]: 117 ± 3.81 µM
- IC50 (RAW 264.7 macrophages): > 200 µM
- IC50 ([2]; Homo sapiens, MDA-MB-231, 72 h): > 200 µM
- IC50 (MCF7 mammary malignancy; Homo sapiens, MCF7, 72 h): > 200 µM
- IC50 (A549 lung malignancy; Homo sapiens, A549, 72 h): 36.6 ± 0.2 µM
- IC50 ([3]; Homo sapiens, PANC-1, 72 h): > 200 µM
- IC50 ([4]; Homo sapiens, BT-549, 72 h): 94.8 ± 4.17 µM
- IC50 (T47D mammary malignancy; Homo sapiens, T47D, 72 h): > 200 µM
- IC50 ([5]; Homo sapiens, MDA-MB-453, 72 h): > 200 µM
- IC50 ([6]; Homo sapiens, SW480, 72 h): 51.6 ± 3.07 µM
- IC50 (Hela cervix malignancy; Homo sapiens, HeLa, 72 h): > 200 µM
- IC50 (PC3 prostate malignancy; Homo sapiens, 72 h): > 200 µM
- MIC [12]: 31.3 µg/mL (≈ 91.4 µM)
- MIC [13]: 15.6 µg/mL (≈ 45.6 µM)
- MIC [14]: 31.3 µg/mL (≈ 91.4 µM)

SMILES: COc1ccc2c(c1)c(CC(=O)O)c(C)n2C(=O)c1ccc(Cl)cc1 [Indomethacin, reference compound]
- IC50 (RAW 264.7 macrophages): > 200 µM
